How the values were obtained:
[1] = biological target: human full-length recombinant HDAC1 (Homo sapiens (Human), UniProt Q13547); assay: HDAC1 enzymatic activity assay (alternative protocol, Ac-Gly-Ala-Lys(Ac)-AMC); format: biochemical; conditions: 4 nM enzyme, read-out: HDAC1 biochem
Procedure: (§1) Inhibition of HDAC enzymes was performed in 384-well plate format using human full-length recombinant HDAC1 and HDAC6, isolated from a baculovirus expression system in Sf9 cells (BPS Bioscience). Reaction buffer for HDAC1 contained 50 mM Tris HCl pH 8.0, 137 mM NaCl, 2.7 mM KCl, 1 mM MgCl2, 0.1 mg/mL BSA, and reaction buffer for HDAC6 contained 50 mM Tris/HCl, pH 8.0, 137 mM NaCl, 2.7 mM KCl, 250 μM EDTA, 1 mM DTT, 0.1 mg/mL BSA. Compounds (dissolved in 100% DMSO) or DMSO (vehicle) were diluted in assay buffer at 3× final assay concentration and then added to assay plates. SAHA ([…]) was used as a positive control. 3× final assay concentration of recombinant enzymes (final assay concentration is 4 nM and 5 nM for HDAC1 and HDAC6, respectively) were preincubated for 10 minutes with test compounds at room temperature. Afterwards, 3× final assay concentration of an acetylated fluorogenic peptide (Ac-Gly-Ala-Lys(Ac))-AMC, Bachem; final assay concentration is 12 µM and 40 µM for HDAC1 and HDAC6, respectively) was added to assay plate, allowing deacetylase reactions to incubate for 60 minutes at room temperature. The developer reagent containing 5 μM SAHA and 50 μM trypsin was added to stop the deacetylase reaction and generate AMNC-fluorescence. 15 minutes after addition of developer reagent, endpoint measurements were taken using CLARIOstar (BMG Labtech) plate reader (excitation/emission: 360/450). Fluorescence signals were normalized for each plate using GraphPad Prism software: reaction HDAC-substrate in presence of DMSO was set to 100% while reaction HDAC-substrate in presence of 10 μM SAHA was set to 0%.

[2] = biological target: catalytic domain 2 (CD2) of HDAC6 (Homo sapiens (Human), UniProt Q9UBN7); assay: Cellular target engagement assay - NanoBRET; format: cell-based; conditions: NanoLuc-HDAC6(CD2) in HEK293T cells, 2 hours, read-out: IC50 (HDAC6(CD2) interaction)
Sequence of catalytic domain 2 (CD2) of HDAC6 (Q9UBN7 482-800): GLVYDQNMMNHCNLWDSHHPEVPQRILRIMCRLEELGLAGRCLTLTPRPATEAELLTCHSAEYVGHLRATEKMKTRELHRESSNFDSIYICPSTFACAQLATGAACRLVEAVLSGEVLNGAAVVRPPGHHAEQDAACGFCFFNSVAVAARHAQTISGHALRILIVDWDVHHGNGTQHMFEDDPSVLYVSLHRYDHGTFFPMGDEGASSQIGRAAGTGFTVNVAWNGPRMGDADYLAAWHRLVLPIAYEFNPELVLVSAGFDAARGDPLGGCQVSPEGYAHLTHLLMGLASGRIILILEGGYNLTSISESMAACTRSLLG

[3] = biological target: human full-length recombinant HDAC6 (Homo sapiens (Human), UniProt Q9UBN7); assay: HDAC6 enzymatic activity assay (alternative protocol, Ac-Gly-Ala-Lys(Ac)-AMC); format: biochemical; conditions: 5 nM enzyme, read-out: HDAC6 biochem
Sequence of human full-length recombinant HDAC6 (Q9UBN7 whole entry): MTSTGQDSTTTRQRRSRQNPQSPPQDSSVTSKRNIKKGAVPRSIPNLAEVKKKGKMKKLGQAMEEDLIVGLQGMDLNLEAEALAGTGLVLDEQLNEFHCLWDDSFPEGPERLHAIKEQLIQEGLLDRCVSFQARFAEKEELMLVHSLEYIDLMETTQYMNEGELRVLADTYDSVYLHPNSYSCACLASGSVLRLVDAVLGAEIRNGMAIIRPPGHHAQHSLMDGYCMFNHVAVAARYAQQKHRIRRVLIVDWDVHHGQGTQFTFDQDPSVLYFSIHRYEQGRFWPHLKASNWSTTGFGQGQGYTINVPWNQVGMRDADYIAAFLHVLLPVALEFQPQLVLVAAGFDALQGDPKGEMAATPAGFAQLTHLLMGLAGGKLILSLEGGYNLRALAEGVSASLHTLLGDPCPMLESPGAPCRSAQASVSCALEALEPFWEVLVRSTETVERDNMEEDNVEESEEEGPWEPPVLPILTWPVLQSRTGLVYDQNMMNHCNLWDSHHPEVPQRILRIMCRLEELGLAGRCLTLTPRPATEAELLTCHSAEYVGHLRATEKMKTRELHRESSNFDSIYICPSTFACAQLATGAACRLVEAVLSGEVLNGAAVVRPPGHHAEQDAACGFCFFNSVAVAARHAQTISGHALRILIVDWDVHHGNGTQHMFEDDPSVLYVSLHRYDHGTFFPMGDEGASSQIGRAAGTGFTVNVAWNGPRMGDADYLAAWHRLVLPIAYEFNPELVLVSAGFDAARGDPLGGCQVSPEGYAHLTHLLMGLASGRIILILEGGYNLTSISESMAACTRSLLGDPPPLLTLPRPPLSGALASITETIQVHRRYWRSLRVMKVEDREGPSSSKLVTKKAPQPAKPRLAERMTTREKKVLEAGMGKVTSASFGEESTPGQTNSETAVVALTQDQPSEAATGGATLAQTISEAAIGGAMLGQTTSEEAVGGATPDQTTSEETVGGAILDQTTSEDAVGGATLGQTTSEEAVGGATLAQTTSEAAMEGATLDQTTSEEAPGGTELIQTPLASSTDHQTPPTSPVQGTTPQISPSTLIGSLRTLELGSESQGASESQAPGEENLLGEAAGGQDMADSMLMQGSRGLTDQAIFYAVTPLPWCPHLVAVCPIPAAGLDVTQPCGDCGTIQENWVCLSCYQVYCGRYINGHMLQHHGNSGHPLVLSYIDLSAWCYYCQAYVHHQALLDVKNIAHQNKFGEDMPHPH
Procedure: as §1

Sequence of human full-length recombinant HDAC1 (Q13547 whole entry): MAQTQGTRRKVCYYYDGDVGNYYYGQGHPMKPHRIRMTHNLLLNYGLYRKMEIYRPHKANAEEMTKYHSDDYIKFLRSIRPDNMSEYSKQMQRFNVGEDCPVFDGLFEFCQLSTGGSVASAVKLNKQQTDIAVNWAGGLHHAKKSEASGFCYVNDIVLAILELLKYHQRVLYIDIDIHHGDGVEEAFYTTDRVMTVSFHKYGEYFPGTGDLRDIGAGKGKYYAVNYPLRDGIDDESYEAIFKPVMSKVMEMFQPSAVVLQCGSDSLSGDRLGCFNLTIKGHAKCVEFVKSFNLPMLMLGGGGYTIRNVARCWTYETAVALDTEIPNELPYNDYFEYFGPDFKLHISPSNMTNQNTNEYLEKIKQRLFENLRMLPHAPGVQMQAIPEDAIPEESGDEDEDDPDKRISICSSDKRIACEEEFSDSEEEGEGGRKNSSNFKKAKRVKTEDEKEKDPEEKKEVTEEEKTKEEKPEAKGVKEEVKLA

| Structure (SMILES) | IC50 [1] [nM] | IC50 [2] [nM] | IC50 [3] [nM] |
| --- | --- | --- | --- |
| Cc1nc(SCC(=O)c2ccc(CNC(=O)C(C)(C)C)s2)c2ccc(Cl)cc2n1 [Example 8, N-((5-(2-((7-chloro-2-methylquinazolin-4-yl)thio)acetyl)thiophen-2-yl)methyl)pivalamide] | > 10000 | 100 to 500 | ≤ 100 |
| Cc1nc(SCC(=O)c2ccc(CNC(=O)C(C)(C)C)s2)c2cc(F)ccc2n1 [Example 9, N-((5-(2-((6-fluoro-2-methylquinazolin-4-yl)thio)acetyl)thiophen-2-yl)methyl)pivalamide] | > 10000 | 100 to 500 | ≤ 100 |
| Cc1nc(SCC(=O)c2ccc(CNC(=O)C(C)(C)C)s2)c2ccc(F)cc2n1 [Example 10, N-((5-(2-((7-fluoro-2-methylquinazolin-4-yl)thio)acetyl)thiophen-2-yl)methyl)pivalamide] | > 10000 | 100 to 500 | ≤ 100 |
| Cc1ccc2c(SCC(=O)c3ccc(CNC(=O)C(C)(C)C)s3)nc(C)nc2c1 [Example 11, N-((5-(2-((2,7-dimethylquinazolin-4-yl)thio)acetyl)thiophen-2-yl)methyl)pivalamide] | > 10000 | 100 to 500 | ≤ 100 |
| COc1ccc2c(SCC(=O)c3ccc(CNC(=O)C(C)(C)C)s3)nc(C)nc2c1 [Example 12, N-((5-(2-((7-methoxy-2-methylquinazolin-4-yl)thio)acetyl)thiophen-2-yl)methyl)pivalamide] | > 10000 | 100 to 500 | ≤ 100 |
| Cc1nc(SCC(=O)c2ccc(CNC(=O)C(C)(C)C)s2)c2cccc(F)c2n1 [Example 15, N-((5-(2-((8-fluoro-2-methylquinazolin-4-yl)thio)acetyl)thiophen-2-yl)methyl)pivalamide] | > 10000 | 100 to 500 | ≤ 100 |
| CN(C)c1nc(SCC(=O)c2ccc(CNC(=O)C(C)(C)C)s2)c2ccccc2n1 [Example 16, N-((5-(2-((2-(dimethylamino)quinazolin-4-yl)thio)acetyl)thiophen-2-yl)methyl)pivalamide] | > 10000 | 100 to 500 | ≤ 100 |
| CC(C)(C)C(=O)NCc1ccc(C(=O)CSc2nc(C(F)F)nc3ccccc23)s1 [Example 19, N-((5-(2-((2-(difluoromethyl)quinazolin-4-yl)thio)acetyl)thiophen-2-yl)methyl)pivalamide] | > 10000 | 100 to 500 | ≤ 100 |
| Cn1ncc2c(SCC(=O)c3ccc(CNC(=O)C(C)(C)C)s3)nc(C(F)(F)F)nc21 [Example 20, N-((5-(2-((1-methyl-6-(trifluoromethyl)-1H-pyrazolo[3,4-d]pyrimidin-4-yl)thio)acetyl)thiophen-2-yl)methyl)pivalamide] | > 10000 | 100 to 500 | ≤ 100 |
| Cn1ncc2c(SCC(=O)c3ccc(CNC(=O)C(C)(C)C)s3)nc(C(F)F)nc21 [Example 21, N-((5-(2-((6-(difluoromethyl)-1-methyl-1H-pyrazolo[3,4-d]pyrimidin-4-yl)thio)acetyl)thiophen-2-yl)methyl)pivalamide] | > 10000 | 500 to 1000 | ≤ 100 |
| Cc1ccc2oc(SCC(=O)c3ccc(CNC(=O)C(C)(C)C)s3)nc2n1 [Example 23, N-((5-(2-((5-methyloxazolo[4,5-b]pyridine-2-yl)thio)acetyl)thiophen-2-yl)methyl)pivalamide] | 1000 to 10000 | 100 to 500 | ≤ 100 |
| CC1CCN(Cc2ccc(C(=O)CSc3ncnc4c3cnn4C)s2)C1=O (stereo not drawn) [Example 24, 3-methyl-1-((5-(2-((1-methyl-1H-pyrazolo[3,4-d]pyrimidin-4-yl)thio)acetyl)thiophen-2-yl)methyl)pyrrolidin-2-one] | > 10000 | 100 to 500 | ≤ 100 |
| Cn1ncc2c(SCC(=O)c3ccc(CN4CCCC4=O)s3)ncnc21 [Example 25, 1-((5-(2-((1-methyl-1H-pyrazolo[3,4-d]pyrimidin-4-yl)thio)acetyl)thiophen-2-yl)methyl)pyrrolidin-2-one] | > 10000 | 100 to 500 | ≤ 100 |

From patent publication US20250051319A1 (AUGUSTINE THERAPEUTICS, priority 2021, published 2025)
